Measured values: ChEMBL document CHEMBL5050846 (2020)
Active and inactive are the calls of the source. The rule behind the calls is not given here.

Legend:
[1] = Brain to plasma ratio in rat; assay type: ADME; settings: read-out: BPR
[2] = Half-life in rat; assay type: ADME; settings: in vivo
[3] = Cmax in rat; assay type: ADME; settings: in vivo
[4] = AUClast in rat; assay type: ADME; set-up: time 0 - last; settings: in vivo
[5] = Tmax in rat; assay type: ADME; settings: in vivo
[6] = system: Rattus norvegicus; assay: Protection against harmaline-induced tremor in rats at 10 mg/kg; assay type: functional, organism-based
[7] = system: Rattus norvegicus; assay type: functional, organism-based; settings: dose 100.0 mg/kg
[8] = organism: Rattus norvegicus; assay: Effect on sleep architecture of rats assessed as increase in slow wave sleep; assay type: functional, organism-based
[9] = system: Hepatocyte; assay: Induction of […] mRNA production in primary human hepatocytes at 10 uM relative to control; assay type: functional, cell-based
[10] = Plasma concentration in male rats at 25 mg/kg, po at 2 hrs using 90% PEG400; assay type: ADME, organism-based; settings: rat
[11] = system: Canis familiaris; assay: Effect on QTc interval of heart in dogs at 2 to 300 mg/kg, iv; assay type: toxicity, organism-based, Canis lupus familiaris; settings: dog, in vivo, dose 2-300 mg/kg
[12] = system: Rattus norvegicus; assay: Effect on neurobehavioral function in female rats assessed as increase in foot splay width at 15 mg/kg, po administered a single dose; assay type: toxicity, organism-based; settings: in vivo
[13] = Brain concentration in male rats at 25 mg/kg, po at 2 hrs using 1% methylcellulose; assay type: ADME, organism-based; settings: rat, read-out: Drug uptake
[14] = system: Rattus norvegicus; assay: Effect on respiratory function in female rats assessed as increase in PenH at 300 to 2000 mg/kg, po; assay type: toxicity, organism-based; settings: in vivo, dose 300-2000 mg/kg
[15] = Brain concentration in male rats at 25 mg/kg, po at 2 hrs using 90% PEG400; assay type: ADME, organism-based; settings: rat, read-out: Drug uptake
[16] = biological target: CYP3A4 (Homo sapiens, UniProt P08684); assay: Inhibition of recombinant human CYP3A4 in human liver microsomes at 1 uM relative to control; assay type: ADME
Chain of CYP3A4 (P08684 whole entry): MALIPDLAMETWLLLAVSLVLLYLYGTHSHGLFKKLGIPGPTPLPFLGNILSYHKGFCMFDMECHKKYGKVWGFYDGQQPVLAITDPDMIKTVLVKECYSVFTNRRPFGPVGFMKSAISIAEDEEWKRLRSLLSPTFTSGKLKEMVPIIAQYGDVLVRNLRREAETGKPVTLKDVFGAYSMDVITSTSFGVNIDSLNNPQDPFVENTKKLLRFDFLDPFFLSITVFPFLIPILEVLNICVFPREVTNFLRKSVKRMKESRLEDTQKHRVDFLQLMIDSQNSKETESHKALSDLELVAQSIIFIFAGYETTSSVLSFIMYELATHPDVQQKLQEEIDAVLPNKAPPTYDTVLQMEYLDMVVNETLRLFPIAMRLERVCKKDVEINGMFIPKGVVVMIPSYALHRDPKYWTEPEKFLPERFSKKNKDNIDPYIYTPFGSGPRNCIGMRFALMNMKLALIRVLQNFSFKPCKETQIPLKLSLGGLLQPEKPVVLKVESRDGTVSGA

[17] = Toxicity in rats at 10 to 1000 mg/kg, po assessed as developmental toxicity; assay type: organism-based; settings: rat, in vivo, dose 10-1000 mg/kg
[18] = system: Rattus norvegicus; assay: Effect on respiratory function in male rats assessed as change in airway resistance at 6 mg/kg, iv; assay type: toxicity, organism-based; settings: in vivo
[19] = Clearance in dog at 0.5 mg/kg, po; assay type: ADME, organism-based, Canis lupus familiaris; settings: in vivo
[20] = system: Canis familiaris; assay: Effect on QRS duration of heart in dogs at 10 mg/kg, iv; assay type: toxicity, organism-based, Canis lupus familiaris; settings: dog, in vivo
[21] = system: Rattus norvegicus; assay type: functional, organism-based; settings: dose 3-30 mg/kg
[22] = Toxicity in female Sprague-Dawley rats at 10 to 1000 mg/kg, po assessed as effect on fertility; assay type: organism-based; settings: rat, in vivo, dose 10-1000 mg/kg
[23] = Toxicity in Sprague-Dawley rats at 30 to 1000 mg/kg, po assessed as maternal toxicity; assay type: organism-based; settings: rat, in vivo, dose 30-1000 mg/kg
[24] = system: Rattus norvegicus; assay: Protection against amphetamine-induced psycho-motor activity in rat at 1 to 10 mg/kg, po; assay type: functional, organism-based; settings: dose 1-10 mg/kg
[25] = system: Canis familiaris; assay: Effect on heart rate in dogs at 10 mg/kg, iv; assay type: toxicity, organism-based, Canis lupus familiaris; settings: dog, in vivo
[26] = Toxicity in rabbits at 30 to 1000 mg/kg, po assessed as developmental toxicity; assay type: organism-based, Oryctolagus cuniculus; settings: rabbit, in vivo, dose 30-1000 mg/kg
[27] = Half-life in dog at 0.5 mg/kg, po; assay type: ADME, organism-based, Canis lupus familiaris; settings: in vivo
[28] = system: Rattus norvegicus; assay: Effect on respiratory function in female rats assessed as increase in PenH at 30 mg/kg, po; assay type: toxicity, organism-based; settings: in vivo
[29] = biological target: T1, pregnane X receptor (PXR, NR1I2) (Homo sapiens, UniProt O75469); assay: Activation of human pregnane X receptor at 10 uM relative to control; settings: read-out: Activity
T1 sequence (O75469 whole entry): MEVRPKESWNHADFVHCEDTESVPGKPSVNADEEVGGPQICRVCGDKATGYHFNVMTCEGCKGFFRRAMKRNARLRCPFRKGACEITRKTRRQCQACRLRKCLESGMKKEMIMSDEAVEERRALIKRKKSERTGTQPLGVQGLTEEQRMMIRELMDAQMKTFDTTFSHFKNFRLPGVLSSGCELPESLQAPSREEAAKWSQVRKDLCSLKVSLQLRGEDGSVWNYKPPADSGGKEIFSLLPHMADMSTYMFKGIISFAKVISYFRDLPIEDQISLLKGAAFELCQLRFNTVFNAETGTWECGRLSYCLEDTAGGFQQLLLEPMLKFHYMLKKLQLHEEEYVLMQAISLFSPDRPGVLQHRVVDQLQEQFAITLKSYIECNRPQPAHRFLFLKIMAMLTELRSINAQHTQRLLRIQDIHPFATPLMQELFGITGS

[30] = Toxicity in Sprague-Dawley rats at 30 to 2000 mg/kg, po assessed as micronuclei induction in bone marrow; assay type: organism-based; settings: rat, in vivo, dose 30-2000 mg/kg
[31] = organism: Rattus norvegicus; assay: Effect on sleep architecture of rats assessed as decrease in rapid eye movement sleep early in sleep period; assay type: functional, organism-based
[32] = system: Canis familiaris; assay: Effect on QTc interval of heart in dogs at 10 mg/kg, iv; assay type: toxicity, organism-based, Canis lupus familiaris; settings: dog, in vivo
[33] = system: Canis familiaris; assay: Effect on core body temperature in dogs at 2 to 300 mg/kg, iv; assay type: toxicity, organism-based, Canis lupus familiaris; settings: dog, in vivo, dose 2-300 mg/kg
[34] = system: Canis familiaris; assay: Effect on blood pressure in dogs at 2 to 300 mg/kg, iv; assay type: toxicity, organism-based, Canis lupus familiaris; settings: dog, in vivo, dose 2-300 mg/kg
[35] = system: Rattus norvegicus; assay: Effect on neurobehavioral function in female rats at 30 mg/kg, po administered a single dose at 24 hrs; assay type: toxicity, organism-based; settings: in vivo
[36] = Induction of CYP3A4 mRNA production in primary human hepatocytes at 10 uM relative to control; assay type: functional, Hepatocyte
[37] = Toxicity in Beagle dogs at 3 to 300 mg/kg, po measured by 10-day extrapolatory dose-range finding study; assay type: organism-based, Canis lupus familiaris; settings: dog, in vivo, 240 h, dose 3-300 mg/kg
[38] = system: Rattus norvegicus; assay: Effect on neurobehavioral function in female rats at 30 mg/kg, po administered a single dose at 2 hrs; assay type: toxicity, organism-based; settings: in vivo
[39] = system: Canis familiaris; assay: Effect on QRS duration of heart in dogs at 2 to 300 mg/kg, iv; assay type: toxicity, organism-based, Canis lupus familiaris; settings: dog, in vivo, dose 2-300 mg/kg
[40] = Plasma concentration in male rats at 25 mg/kg, po at 2 hrs using 1% methylcellulose; assay type: ADME, organism-based; settings: rat
[41] = system: Canis familiaris; assay: Effect on PR interval of heart in dogs at 2 to 300 mg/kg, iv; assay type: toxicity, organism-based, Canis lupus familiaris; settings: dog, in vivo, dose 2-300 mg/kg
[42] = Toxicity in rabbits at 30 to 1000 mg/kg, po assessed as maternal toxicity; assay type: organism-based, Oryctolagus cuniculus; settings: rabbit, in vivo, 672 h, dose 30-1000 mg/kg, time 4 weeks
[43] = organism: Rattus norvegicus; assay: Effect on sleep architecture of rats assessed as increase in rapid eye movement sleep late in sleep period; assay type: functional, organism-based
[44] = system: Rattus norvegicus; assay type: functional, organism-based; settings: dose 10.0 mg/kg
[45] = Oral bioavailability in dog at 0.5 mg/kg; assay type: ADME, organism-based, Canis lupus familiaris; settings: in vivo
[46] = Toxicity in Sprague-Dawley rats at 30 to 1000 mg/kg, po assessed as developmental toxicity; assay type: organism-based; settings: rat, in vivo, dose 30-1000 mg/kg
[47] = system: Rattus norvegicus; assay: Effect on neurobehavioral function in female rats at 30 to 3000 mg/kg, po; assay type: toxicity, organism-based; settings: in vivo, dose 30-3000 mg/kg
[48] = biological target: CYP3A5 (Homo sapiens, UniProt P20815); assay: Inhibition of recombinant human CYP3A5 in human liver microsomes at 1 uM relative to control; assay type: ADME
Chain of CYP3A5 (P20815 whole entry): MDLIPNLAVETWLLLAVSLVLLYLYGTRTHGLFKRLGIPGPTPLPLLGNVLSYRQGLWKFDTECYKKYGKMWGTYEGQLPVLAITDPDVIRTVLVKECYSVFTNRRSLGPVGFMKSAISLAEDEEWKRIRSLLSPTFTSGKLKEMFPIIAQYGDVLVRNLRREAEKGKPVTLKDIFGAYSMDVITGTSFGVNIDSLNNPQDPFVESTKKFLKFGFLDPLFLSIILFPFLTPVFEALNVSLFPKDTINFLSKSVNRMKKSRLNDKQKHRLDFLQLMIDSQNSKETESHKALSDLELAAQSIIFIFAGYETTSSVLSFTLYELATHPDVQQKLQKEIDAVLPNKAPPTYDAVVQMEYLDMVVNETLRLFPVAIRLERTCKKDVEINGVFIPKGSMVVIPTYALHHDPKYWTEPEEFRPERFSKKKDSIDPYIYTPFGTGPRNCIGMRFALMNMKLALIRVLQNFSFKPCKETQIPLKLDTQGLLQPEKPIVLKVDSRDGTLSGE

[49] = Toxicity in female Sprague-Dawley rats at 10 to 1000 mg/kg, po; assay type: organism-based; settings: rat, in vivo, dose 10-1000 mg/kg

N#Cc1ccc([C@@]2(C3CC3)c3cc(Cl)ccc3NC(=O)N2CC(F)(F)F)cc1
Kp [1]: 1.1 | half-life [2]: 5.9 h | Cmax [3]: 3 µM

C[C@@H](NC(=O)Cc1ccc(C2CC2)cc1)c1ccc(OCC(F)(F)F)cn1
AUC(0-t) [4]: 30 µM·h | Kp [1]: 0.27 | half-life [2]: 1.5 h | Cmax [3]: 7.5 µM | Tmax [5]: 0.3 h

CC1(C)C[C@@H](CN2CCC(F)(CNC(=O)c3cc(Cl)cc(Cl)c3)CC2)CCO1
Activity [6]: Active

CCC1(C)CC(=O)NC1=O (configuration not stated)
Activity [7]: Active

CC(C)c1ccc(CC(=O)N[C@H](C)c2ccc(OCC(F)(F)F)cn2)cc1 [SUVECALTAMIDE]
Activity [8]: Active | Activity [9]: Active | concentration at 2 h [10]: 3.3 µM | Activity [11]: Non-Toxic | Activity [12]: Toxic | concentration at 2 h [13]: 3.1 µM | Activity [14]: Non-Toxic | concentration at 2 h [15]: 1.8 µM | inhibition at 1 µM [16]: > 80% | Activity [17]: Non-Toxic | Activity [18]: Non-Toxic | CL/F [19]: 0.4 mL/min/kg | Activity [20]: Non-Toxic | Activity [21]: Active | NOAEL [22]: ≥ 1000 mg/kg/day | Activity [23]: Toxic | Activity [24]: Active | Activity [25]: Non-Toxic | Activity [26]: Toxic | t1/2 [27]: 3.1 h | Activity [28]: Non-Toxic | activity at 10 µM [29]: ≤ 34% | Activity [30]: Non-Toxic | Activity [31]: Active | Activity [32]: Non-Toxic | Activity [33]: Non-Toxic | Activity [34]: Non-Toxic | Activity [35]: Non-Toxic | Activity [36]: <=10% | Activity [37]: Non-Toxic | Activity [38]: Non-Toxic | Activity [39]: Non-Toxic | concentration at 2 h [40]: 6.3 µM | Activity [41]: Non-Toxic | Activity [42]: Toxic | Activity [43]: Active | Activity [44]: Active | bioavailability [45]: 47% | Activity [46]: Toxic | Activity [47]: Non-Toxic | inhibition at 1 µM [48]: > 80% | NOAEL [49]: 100 mg/kg/day
